# Experimental data published in patent publication US20240043473A1, “NOOTROPIC PEPTIDES FOR TREATING LYSOSOMAL STORAGE DISEASES” (Phoenix Nest Inc., priority 2021, published 2024).
# Entries after “also recorded” stand apart in the source; their conditions may differ. No end group written: not given here.
# Legend:
# [1] = Effect on memory and learning after intranasal administration (earlier work); format: in vivo; details: 50 μg/kg BW intranasal; mice and rats
# [2] = Body weight measured weekly during chronic administration; format: in vivo, mouse; details: chronic intranasal administration; Hgsnat^P304L or WT mice
# Experimental: WT, and Hgsnat^P304L mice were randomly assigned to the treatment and control groups. The cohort size (18 mice/sex/treatment) was calculated based on mean variability of replicates in previous behavioral tests in Hgsnat^P304L mice to detect a ˜40% difference between means (power=0.8). Treatment was started at weaning (P21) which corresponds to neurodevelopmental human age of 3 years, the time of disease onset for majority of Sanfilippo patients. Since most patients are diagnosed post-symptomatically, this age would most likely become the treatment starting point for the most of patients. […] To test if chronic administration of the peptide results in major metabolic changes, the mouse body weight was measured weekly.
# [3] = mouse, in vivo
# Experimental: WT C57B16 4-month-old male mouse was dosed intranasally with 10 μl of 50 mM AVP6 in saline (5 μl/nostril). One hour after dosing, the mouse was anesthetized with sodium pentobarbital, and 500 μl of blood collected by cardiac puncture. Mouse was then sacrificed by cranial dislodgement and its brain and visceral organs extracted. Tissues and blood plasma were homogenized in acetonitrile (1:4, tissue/solvent ratio). The extracts were spiked with heavy isotope-labelled (Phe U-^13C9; U-^15N) AVP6 peptide as an internal standard, and analyzed by targeted LC-MS/MS, using parallel reaction monitoring on Orbitrap Exploris 480 instrument.
# Peptide pharmaco-kinetics was determined by evaluation of AVP6 levels in CNS, blood and peripheral tissues at different time points (1-48 h) after intranasal delivery in the WT mice. The entire mouse brain was cut in four sections, rostral to caudal and assessed for biodistribution of AVP6 by targeted LC-MS/MS using parallel reaction monitoring. For quantification, samples were spiked with isotopically labeled (Phe U-^13C9; U-^15N) AVP6 peptide as an internal standard. Peptide levels were also measured in peripheral (liver, kidney, spleen) tissues and in blood to provide insights into peptide biodistribution and degradation rates.
# [4] = system: CA1 pyramidal neurons in acute hippocampal slices from Hgsnat^Geo mice; experiment: Miniature inhibitory postsynaptic currents (mIPSC), whole cell voltage clamp in acute hippocampal slices; format: cell-based, mouse; details: 10 μM bath application, P14-20
# Experimental: (§1) Method: Whole cell voltage clamp electrophysiology recordings (miniature synaptic currents) were conducted on CA1 pyramidal neurons in acute hippocampal slices.
# Acute hippocampal slices were prepared as follows. Briefly, animals were anaesthetized deeply with isoflurane and decapitated. The brain was dissected carefully and transferred rapidly into an ice-cold (0-4° C.) solution containing the following (in mM): 250 sucrose, 2 KCl, 1.25 NaH2PO4, 26 NaHCO3, 7 MgSO4, 0.5 CaCl2 and 10 glucose, pH 7.4. […] Whole-cell patch-clamp recordings were obtained from single cells in voltage- or current-clamp mode and only 1 cell per slice was recorded to enable post-hoc identification and immunohistochemical processing. […]
# After obtaining whole cell configuration, passive membrane properties were monitored for 5 min and current clamp recordings were done to measure action potential characteristics. […] Cells were voltage clamped at −70 mV for mEPSCs recording and then held at 0 mV (calculated from the reversal potential of Cl) for mIPSCs recording. […] Both mEPSCs and mIPSCs were recorded for 7 min and a running template on a stable baseline (minimum of 30 events) was used for the analysis of miniature events on MiniAnalysis. […]
# [5] = system: CA1 pyramidal neurons in acute hippocampal slices from Hgsnat-Geo and Hgsnat^P304L mice; experiment: Miniature excitatory postsynaptic currents (mEPSC), whole cell voltage clamp in acute hippocampal slices; format: cell-based, mouse; details: for mEPSC amplitude and frequency deficits: Hgsnat-Geo and Hgsnat^P311L (P304L) slices
# Experimental: Models and developmental time points: Hippocampal slices from Hgsnat-Geo and Hgsnat^P304L mice; P14-20 and P45-60.
# as §1
# Acute hippocampal slices were prepared as follows. Briefly, animals were anaesthetized deeply with isoflurane and decapitated. The brain was dissected carefully and transferred rapidly into an ice-cold (0-4° C.) solution containing the following (in mM): 250 sucrose, 2 KCl, 1.25 NaH2PO4, 26 NaHCO3, 7 MgSO4, 0.5 CaCl2 and 10 glucose, pH 7.4. The solution was oxygenated continuously with 95% O2 and 5% CO2, 330-340 mOsm/L. Transverse hippocampal slices (thickness, 300 μm) were cut using a vibratome (VT1000S; Leica Microsystems), transferred to a bath at room temperature (23° C.) with standard ACSF at pH 7.4 containing the following (in mM): 126 NaCl, 3 KCl, 1 NaH2PO^4, 25 NaHCO3, 2 MgSO4, 2 CaCl2), 10 glucose, continuously saturated with 95% 02 and 5% CO2 and allowed to recover for 1 h. During the experiments, slices were transferred to the recording chamber at physiological temperature (30-33° C.) continuously perfused with standard ACSF, as described above, at 2 ml/min. Pyramidal CA1 neurons from the hippocampus were identified visually using a 40× water immersion objective. Whole-cell patch-clamp recordings were obtained from single cells in voltage- or current-clamp mode and only 1 cell per slice was recorded to enable post-hoc identification and immunohistochemical processing. Recording pipettes (4-6 MΩ) were filled with a K-gluconate based solution for voltage-clamp recordings (in mM): 130 K-gluconate, 10 KCl, 5 diNa-phosphocreatine. 10 HEPES, 2.5 MgCl2, 0.5CaCl2,1 EGTA, 3 ATP-Tris, 0.4 GTP-Li, 0.3% biocytin, pH 7.2-7.4, 280-290 mOsm/L.
# After obtaining whole cell configuration, passive membrane properties were monitored for 5 min and current clamp recordings were done to measure action potential characteristics. […]. Cells were voltage clamped at −70 mV for mEPSCs recording and then held at 0 mV (calculated from the reversal potential of Cl) for mIPSCs recording. Data acquisition (filtered at 2-3 kHz and digitized at 15 kHz; Digidata 1440A, Molecular Devices, CA, USA) was performed using the Axopatch 200B amplifier and the Clampex 10.6 software (Molecular Devices). Both mEPSCs and mIPSCs were recorded for 7 min and a running template on a stable baseline (minimum of 30 events) was used for the analysis of miniature events on MiniAnalysis. Clampfit 10.2 software was used for analysis of action potential characteristics and other passive membrane properties.
# This example tested AVP6's effect on synaptic signaling in acute hippocampal slices of MPS IIIC (both Hgsnat^Geo and Hgsnat^P304L) mice. […]
# [6] = system: BDNF; experiment: Mature BDNF levels in dissected hippocampi by Western blot; format: in vivo, mouse
# Experimental: Method: AVP6 was administered intranasally at 50 μg/kg (5 μl/nostril) for 10 consecutive days. After sacrifice, changes in the levels of BDNF, a protein involved in long-term synaptic potentiation and memory consolidation, in the dissected hippocampi of mice were analyzed by Western blots.
# The cerebral cortical tissues were homogenized in five volumes of RIPA lysis buffer (50 mM Tris-HCl pH 7.4, 150 mM NaCl, 1% NP-40, 0.25% sodium deoxycholate, 0.1% SDS, 2 mM EDTA, 1 mM PMSF), containing protease and […] inhibitor cocktails (Sigma, cat#4693132001 and 4906837001), using a Dounce homogenizer. The homogenates were kept on ice for 30 min and centrifuged at 13,000 g at 4° C. for 25 min. The supernatant was centrifuged again at 13,000 g for 15 min, the protein concentration in resulting lysates was measured, and 20 μg of protein from each sample was separated by SDS-PAGE on 4-20% precast polyacrylamide gel (Bio-Rad, 4561096). Western blot analyses were performed according to standard protocols using Anti-BDNF and α-tubulin (1:2000, mouse, DSHB) antibodies. Equal protein loading was confirmed by Ponceau S staining and normalized for tubulin immunoreactive band. Detected bands were quantified using ImageJ 1.50i software (National Institutes of Health, Bethesda, MD, USA).
substance,measurement,setting,value
"AVP6: N-terminally acetylated Semax, a nootropic peptide having the amino acid sequence of MEHFPGP (SEQ ID NO:1) (Ac-MEHFPGP)",time to maximal effect on memory and learning after intranasal administration,[1],≤ 24 h
same,"body weight and body weight gain, treated vs untreated",[2],No difference in body weight and body weight gain
same,time the peptide level in the brain remained above the estimated acting concentration,[3],17 h
same,mIPSC amplitude and frequency deficits,[4],did not recover deficits in mIPSC amplitude and frequency; also recorded: did not increase frequencies or amplitudes of mIPSC; also recorded: does not increase
same,mEPSC amplitude and frequency deficits,"[5]; 10 μM bath application, P14-20",recovered deficits in mEPSC amplitude and frequency; also recorded: deficit is rescued
same,mEPSC amplitude and frequency deficits,"[5]; 10 μM bath application, P45-60",recovered deficits in mEPSC amplitude and frequency; also recorded: deficit is rescued
same,mEPSC amplitude and frequency in WT animals,"[5]; 10 μM bath application, P45-60, WT slices",trend for an increase
same,reduced amplitude and frequency of mEPSC,"[5]; acute bath application, MPSIIIC mouse hippocampal slices (Example 1, FIG. 1)",significant restoration
same,mature BDNF levels,"[6]; acute (24 h) intranasal administration, MPSIIIC mice",significantly increased
same,mature BDNF levels in hippocampus,"[6]; intranasal 50 μg/kg daily for 10 days, 4-month-old Hgsnat-Geo mice",significantly increased; also recorded: increases BDNF levels; also recorded: partially restored levels; also recorded: partially rescued
